In patent US9139546B2, “Tri-aryl/heteroaromatic cannabinoids and use thereof” (priority 2007, dated 2015):
Where two headings read alike, the source gives them in different places.

Legend:
human CB1 receptor = human CB1 receptor (Homo sapiens (Human), UniProt P21554); experiment: Receptor binding assay, CB1 ([3H]CP 55,940 displacement); conditions: as repeated in the anti-inflammatory table; read-out: CB-1 Ki
Description: (§1) The assays were carried out in 96 well plates obtained from Millipore, Inc. fitted with glass fiber filters (hydrophilic, GFC filters) having a pore size of 1.2μ. The filters were soaked with 0.05% polyethyleneimine solution and washed 5× with deionized water prior to carrying out the assays. The filtrations were carried out on a 96 well vacuum manifold (Millipore Inc.), the filters punched out with a pipette tip directly into scintillation vials at the end of the experiment and vials filled with 5 ml scintillation cocktail Ecolite (+) (Fisher Scientific). Counting was carried out on a Beckmann Scintillation Counter model LS6500. Drug solutions were prepared in DMSO and the radioligand was dissolved in ethanol.
(§2) 50 mM TRIS-HCl, 5 mM MgCl2, 2.5 mM EDTA, 0.5 mg/ml fatty acid free bovine serum albumin, pH 7.4.
(§3) The membranes were filtered and the filters washed 7× with 0.2 ml ice-cold incubation buffer and allowed to air dry under vacuum.
(§4) Final data are presented as Ki±S.E.M. of n≧3 experiments.

human CB2 receptor = human CB2 receptor (Homo sapiens (Human), UniProt P34972); experiment: Receptor binding assay, CB2 ([3H]CP 55,940 displacement); conditions: for Ki: as repeated in the anti-inflammatory table, read-out: CB-2 Ki; for CB1/CB2: ratio of Ki CB-1 to Ki CB-2
Description: as §1, §2, §3, §4

CXCL-8 = CXCL-8 level in supernatant of TNF-α treated A549 cells (multiplex bead immunoassay); assay type: cell-based, human; conditions: A549, 10 ng/mL TNF-α, 18 hours
Description: (§5) Human lung adenocarcinoma cell line A549 (alveolar type II epithelial-like) cells (ATCC, Manassas, Va.) were maintained in growth media consisting of DMEM supplemented with 10% heat-inactivated fetal calf serum, 2 mM L-glutamine, 100 U/ml penicillin, and 100 μg/ml streptomycin.
(§6) One day prior to treatment, A549 cells were seeded in 24 well culture plates at 6×10^4 cells/well in 1 mL of DMEM containing 1% FCS. On the day of treatment, media was aspirated. Following PBS wash, 1 mL of media containing 1% FCS, 10 ng/mL TNF-α, and varying concentrations of test compounds was added. Samples were collected at 18 hours and immediately transferred to −80° C. until the day of analysis.
(§7) Levels of IL-6 and CXCL-8 were measured in cell culture supernatant using the Multiplex Bead Immunoassay Kit (Biosource, Camarillo, Calif.) paired with the Luminex® 200™ System. Standard solutions were prepared by serial dilution in a 50% media, 50% buffer solution so that they were in the same matrix as the samples. Standards and samples were mixed with a solution containing beads coated with capture antibodies specific for IL-6 and CXCL-8. Each capture antibody is bound to a specific bead population with a known internal fluorescence. The Luminex system can differentiate between internal fluorescence of beads allowing detection of multiple analytes in the same well. Following overnight incubation to allow complexation of protein with capture antibodies, wells were washed and beads resuspended in assay buffer. Biotinylated reporter antibodies specific for IL-6 and CXCL-8 were added and incubated for 1.5 hours. Unbound antibodies were removed by washing, and Streptavidin-Phycoerythrin (PE) was added and incubated 30 minutes. Streptavidin binds to biotin on the reporter antibodies. Unbound reagents were removed and samples were analyzed by the Luminex system. This system utilizes a flow cytometry system and lasers capable of exciting the internal dyes of the beads and PE. The machine separates signals from beads with different internal fluorescence and measures fluorescence intensity from PE bound to these beads through protein-antibody interactions. This fluorescence intensity is reported as the median of 100 beads per cytokine in each well. Concentrations were interpolated by fitting fluorescence intensity from unknowns to the standard curves.
(§8) Cells treated with the pro-inflammatory cytokine TNF-α increase production of IL-6 and CXCL-8 when compared to cells not treated with TNF-α. Cells treated with anti-inflammatory compounds block the inflammatory effect of TNF-α and produce IL-6 and CXCL-8 levels similar to cells that are not treated with TNF-α.

CCL-2 = CCL-2 reduction in TNF-α treated A549 cells; assay type: cell-based, human; conditions: A549, 10 ng/mL TNF-α
NF-κB = NF-κB SEAP reporter assay in TNF-α treated A549 cells; assay type: cell-based; conditions: Homo sapiens, read-out: NF-κB Reduction
Description: as §5
The plasmid pNF-κB-SEAP-NPT was kindly provided by Dr. Y. S. Kim of the Seoul National University. This plasmid contains a secreted alkaline phosphatase (SEAP) reporter gene coupled with the κB response element. Upon activation, NF-κB translocates to the nucleus and binds to the κB response element causing transcriptional activation. This activation drives production of the SEAP reporter, which is secreted into the cell culture supernatant where it can be measured. The neomycin phosphotransferase (NPT) region of the plasmid provides resistance to the antibiotic G-418.
A549 cells were stably transfected with pNF-κB-SEAP-NPT using GeneJammer Transfection Reagent (Stratagene, La Jolla, Calif.) per manufacturer's protocol. G-418 (500 μg/ml) was added 24 hrs after transfection to select for stable transfection of NF-κB. Resistant colonies were selected and maintained in growth media supplemented with 500 μg/ml G-418.
Previous experiments have shown A549 cells respond to the pro-inflammatory cytokine TNF-α by activation of the pro-inflammatory transcription factor, NF-κB. This effect is dose dependent with the maximum effect seen at 10 ng/mL TNF-α. Compounds with anti-inflammatory activity can be used to inhibit this activation of NF-κB.
One day prior to treatment, transfected cells were seeded in 24 well culture plates at 6×10^4 cells/well in 1 mL of DMEM containing 1% FCS. On the day of treatment, media was aspirated. Following PBS wash, 1 mL of media containing 1% FCS, 10 ng/mL TNF-α, and varying concentrations of test compounds was added. Cell culture supernatant was collected at 18 hours. SEAP production was measured in 50 μL of supernatant using the Great EscAPe™ chemiluminescence kit (Clontech, Mountain View, Calif.). Briefly, samples were incubated at 65° C. for 30 minutes to inactivate endogenous alkaline phosphate. Following a 5-minute equilibration with assay buffer, chemiluminescent substrate and enhancer was added. Chemiluminescence was measured after 10 minutes. Higher levels of chemiluminescence result from increased SEAP production and correspond to NF-κB activity. Compounds capable of inhibiting NF-κB activation due to TNF-α are determined by a reduction in chemiluminescence values when cells are treated with TNF-α and test compound versus cells treated with TNF-α alone.

IL-6 = IL-6 level in supernatant of TNF-α treated A549 cells (multiplex bead immunoassay); assay type: cell-based, human; conditions: A549, 10 ng/mL TNF-α, 18 hours
Description: as §5, §6, §7, §8

H69AR lung cancer cells = experiment: Anti-cancer activity, WST-8 cell viability, H69AR; assay type: cell-based; conditions: Homo sapiens
Description: (§9) A representative group of compounds (shown below) was tested for anti-cancer activity against human lung (DMS-135 and H69AR), prostate (DU-145), colorectal (HCT-15), and pancreatic (BxPC-3) cancer cell lines using the methodology described below, providing results shown in Table 3.
(§10) Human cancer cells DU-145, DMS-135, H69AR, HCT-15, and BxPC-3 (American Type Culture Collection, ATCC) were cultured in supplemented media according to the recommendations of the supplier. Cells lines were plated in 96-well flat-bottom plates at 70% confluency in a 100 μl total volume of supplemented media as indicated, and incubated overnight at 37° C. to allow for adherence. The cultures were inoculated with escalating amounts of drug and cell death was analyzed at 18 hours, using the BioTek Synergy 2 Multidetection Microplate Reader. The percentage of viable cells present in the culture at each time point was calculated by comparing the absorbance value at 450 nm from the WST-8 assay (Pojindo Molecular Technologies) for each condition with untreated control cells.

[1] = tested on: DU-145 prostate cancer cells; experiment: Anti-cancer activity, WST-8 cell viability, DU-145; assay type: cell-based; conditions: Homo sapiens
Description: as §9, §10

[2] = tested on: DMS-135 lung cancer cells; experiment: Anti-cancer activity, WST-8 cell viability, DMS-135; assay type: cell-based; conditions: Homo sapiens
Description: as §9, §10

[3] = tested on: HCT-15 colorectal cancer cells; experiment: Anti-cancer activity, WST-8 cell viability, HCT-15; assay type: cell-based; conditions: Homo sapiens
Description: as §9, §10

[4] = tested on: BxPC-3 pancreatic cancer cells; experiment: Anti-cancer activity, WST-8 cell viability, BxPC-3; assay type: cell-based; conditions: Homo sapiens
Description: as §9, §10

[5] = 18 h, read-out: H69AR lung EC50 (μM)
[6] = DU-145, 18 h, read-out: DU-145 prostate EC50 (μM)
[7] = 18 h, read-out: DMS-135 lung EC50 (μM)
[8] = HCT-15, 18 h, read-out: HCT-15 colorectal EC50 (μM)
[9] = DU-145, cell death at 18 hours, WST-8, n.a. = no activity, read-out: DU-145 prostate EC50
[10] = cell death at 18 hours, WST-8, n.a. = no activity, read-out: DMS-135 lung EC50
[11] = HCT-15, cell death at 18 hours, WST-8, n.a. = no activity, read-out: HCT-15 colorectal EC50
[12] = BXPC-3, cell death at 18 hours, WST-8, n.a. = no activity, read-out: BxPC-3 pancreatic EC50

Sequence of human CB1 receptor (P21554 whole entry): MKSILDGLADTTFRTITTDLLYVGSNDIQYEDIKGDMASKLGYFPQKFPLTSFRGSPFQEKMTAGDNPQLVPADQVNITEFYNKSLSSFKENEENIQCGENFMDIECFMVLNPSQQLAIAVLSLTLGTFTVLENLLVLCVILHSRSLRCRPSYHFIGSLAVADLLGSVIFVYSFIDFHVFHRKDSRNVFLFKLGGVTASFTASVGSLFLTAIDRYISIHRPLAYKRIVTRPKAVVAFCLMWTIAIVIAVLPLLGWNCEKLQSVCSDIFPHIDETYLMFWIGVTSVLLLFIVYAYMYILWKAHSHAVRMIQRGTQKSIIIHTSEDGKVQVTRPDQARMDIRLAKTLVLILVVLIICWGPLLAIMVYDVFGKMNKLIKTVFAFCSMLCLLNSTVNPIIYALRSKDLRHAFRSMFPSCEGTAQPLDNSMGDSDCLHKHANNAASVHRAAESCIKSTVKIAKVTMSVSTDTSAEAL

Cc1cccc(-c2c(O)cc(C(=O)c3ccccc3)cc2O)c1 [Compound 26, (2,6-Dihydroxy-3′-methyl-biphenyl-4-yl)-phenyl-methanone]
Ki (human CB1 receptor): 983 nM
Ki (human CB2 receptor): 159 ± 2.92 nM
CB1/CB2 (human CB2 receptor): 6.18
CXCL-8 Reduction (CXCL-8; 100 nM compound): 59 ± 5%
CCL-2 Reduction (CCL-2; 100 nM compound): 61 ± 19%
inhibition at 0.1 µM (NF-κB; A549, 18 h): 67 ± 9%

COc1cc(C(=O)c2ccccc2)cc(O)c1-c1cc(Cl)cc(Cl)c1 [Compound 29, (3′,5′-dichloro-2-hydroxy-6-methoxybiphenyl-4-yl)(phenyl)methanone]
Ki (human CB1 receptor): > 1000 nM
Ki (human CB2 receptor): 4.77 nM
CB1/CB2 (human CB2 receptor): 209
IL-6 Reduction (IL-6; 100 nM compound): <5%
EC50 (H69AR lung cancer cells; [5]): 1.3 µM
CXCL-8 Reduction (CXCL-8; 100 nM compound): <10%
EC50 [1, 6]: 1.5 µM
EC50 [2, 7]: 2.8 µM
EC50 [3, 8]: 2.9 µM
inhibition at 0.1 µM (NF-κB; A549, 18 h): 50%
EC50 ([4]; BXPC-3, 18 h, read-out: BxPC-3 pancreatic EC50 (μM)): 9.3 µM

O=C(c1ccccc1)c1cc(O)c(-c2cc(Cl)cc(Cl)c2)c(O)c1 [Compound 28, (3′,5′-dichloro-2,6-dihydroxybiphenyl-4-yl)(phenyl)methanone]
Ki (human CB1 receptor): 27 nM
Ki (human CB2 receptor): 2.94 nM
CB1/CB2 (human CB2 receptor): 9.18
IL-6 Reduction (IL-6; 1 μM compound): 15%
EC50 (H69AR lung cancer cells; cell death at 18 hours, WST-8, n.a. = no activity, read-out: H69AR lung EC50): 2.4 µM
CXCL-8 Reduction (CXCL-8; 1 μM compound): 5%
EC50 [1, 9]: 5.4 µM
EC50 [2, 10]: 11.8 µM
EC50 [3, 11]: 0.8 µM
inhibition at 1 µM (NF-κB; 1 μM compound, A549, 10 ng/mL TNF-α, 18 hours): 35%
EC50 [4, 12]: 4 µM

COc1cc(C(=O)c2ccccc2)cc(O)c1-c1cccc(C)c1 [Compound 27, (2-Hydroxy-6-methoxy-3′-methyl-biphenyl-4-yl)-phenyl-methanone]
Ki (human CB1 receptor): > 1000 nM
Ki (human CB2 receptor): 225 nM
CB1/CB2 (human CB2 receptor): 4.44
CXCL-8 Reduction (CXCL-8; 1 nM compound): 50%
CXCL-8 Reduction (CXCL-8; 10 nM compound): 27 ± 15%
CCL-2 Reduction (CCL-2; 10 nM compound): 32 ± 9%
inhibition at 0.001 µM (NF-κB; 1 nM compound, A549, 10 ng/mL TNF-α, 18 hours): 45%
inhibition at 0.01 µM (NF-κB; 10 nM compound, A549, 10 ng/mL TNF-α, 18 hours): 38 ± 10%

CC(C)(c1ccccc1)c1cc(O)c(-c2cc(Cl)cc(Cl)c2)c(O)c1 [Compound 41, 3′,5′-dichloro-4-(2-phenylpropan-2-yl)biphenyl-2,6-diol]
CB1/CB2 (human CB2 receptor): 87.5
EC50 (H69AR lung cancer cells; [5]): 1.8 µM
EC50 [1, 6]: 1.4 µM
EC50 [2, 7]: 1.5 µM

COc1cc(C(O)c2ccccc2)cc(OC)c1-c1cc(Cl)cc(Cl)c1 (centres unmarked) [Compound 15]
Ki (human CB1 receptor): > 1000 nM
Ki (human CB2 receptor): 1.66 nM
CB1/CB2 (human CB2 receptor): 602
IL-6 Reduction (IL-6; 100 nM compound): 55%
EC50 [1, 9]: 18.4 µM
EC50 [2, 10]: 6.2 µM
EC50 [3, 11]: 348 µM
inhibition at 0.1 µM (NF-κB; 100 nM compound, A549, 10 ng/mL TNF-α, 18 hours): 30%
EC50 [4, 12]: 11.6 µM

COc1cc(C(C)(C)c2ccccc2)cc(O)c1-c1cc(Cl)cc(Cl)c1 [Compound 47]
EC50 (H69AR lung cancer cells; [5]): 12.2 µM
EC50 [1, 6]: 1.4 µM
EC50 [2, 7]: 0.9 µM
EC50 [3, 8]: 4.2 µM
